{
  "source": "patent US6365570B1",
  "about": "“Pharmaceutical and diagnostic use of Serum Amyloid P component” (priority 1999, dated 2002)",
  "key": {"[1]": {"biological_target": "binding of LPS to monocytes", "assay": "Inhibition of FITC-LPS binding to monocytes (flow cytometry)", "type": "cell-based, human", "conditions": "for IC50: FITC-LPS 2.5 ng/ml, 30 ng/ml recombinant LBP, mononuclear cells of healthy volunteers, 30 minutes at 37° C., read-out: 50% inhibition concentration; for inhibition of binding of LPS to monocytes (in words): FITC-LPS binding to monocytes in vitro, FIG. 2 / FIG. 4", "description": "2.1 Materials and method LPS of Salmonella Re595 (ReLPS, supra) is labelled with FITC (Sigma; F7250) under conditions in which LPS is present as monomer, resulting in a FITC-LPS preparation with a ratio of 1 molecule FITC per molecule PLS. After extension desalting and dialysis against PBS, the stock solution of FITC-LPS is stored at −20° C. Mononuclear leukocytes (monocytes and lymphocytes) are isolated from heparin blood of healthy volunteers via a Ficol (Pharmacial) gradient in accordance with a standard method. After washing the cells are resuspended in isotonic HEPES buffer (with 1 mM CalCl2 and 2% BSA). Preparations with SAP are mixed with FITC-LPS and subsequently added to 3×10^5 mononuclear cells and 30 ng/ml recombinant LSP (obtained from Dr. Lichtenstein) in a total volume of 50 μl and a FITC-LPS concentration of 2.5 ng/ml. After an incubating period of 30 minutes at 37° C., the samples are stored on ice. Analysis of monocyte-associated FITC-LPS binding takes place with PAC Scan™ Flow cytometer. Forward and Sideward Scatter parameters are used to identify the monocyte population. With LysisII™ software (Beckton & Dickinson) the average fluorescence value of 5000 monocytes is calculated. See also Weersing A. J. L. et al., J. Immunol. 145, 318-324 (1990)).\n3.1 Materials and method The test was performed in the same manner as described in example 2. However, SAP fragments (peptides) were used instead of SAP. The amino acid composition of the tested peptides is shown in table 2, as well as the concentration at which 50% inhibition occurs."}, "[2]": {"tested_on": "LPS priming of neutrophils", "assay": "Inhibition of LPS priming of neutrophils (fMLP/luminol luminescence)", "type": "cell-based, human", "conditions": "1 ng/ml ReLPS, 30 ng/ml r-LBP, 30 minutes at 37° C., fMLP stimulus, FIG. 3", "source_text": "4.1 Materials and method Neutrophils are isolated from heparin blood of healthy volunteers via a Histopaque-Picoll gradient in accordance with a standard method (Van Amerafoort, E. S. & J. A. G. van Strijp, Cytometry 17, 294-301 (1994). The remaining erythrocytes in the neutrophil fraction are lysed with sterile water (for 30 seconds) and, after reinstatement of the isotonicity, the fraction is washed. The cells are finally inserted (suspended) in HGSS+2% Human Serum Albumin (HSA). Cells (1×10^4) are incubated with 1 ng/ml ReLPS, 30 ng/ml recombinant LPS-binding protein (r-LPS) and a sample SAP in a total volume of 100 μl for 30 minutes at 37° C. The samples are subsequently placed in a luminometer (Berthold; Autolumat LB953), whereafter via automatic injection luminol (180 μM) and 1 μM fMLP (formylmethyonyl-leucyl-phenylalanine) are added as stimulus to each tube. The luminescence response is measured continuously for 15 minutes and the results expressed as total luminescence response (area under the graph). See also Weersink et al., Immunology 83, 617-623 (1994)."}, "LPS of Salmonella Re595": {"tested_on": "LPS of Salmonella Re595", "assay": "Binding to LPS-Beads, SDS-PAGE analysis", "conditions": "FIG. 1A and 1B, serum pre-incubated with free ReLPS", "description": "1.1 Materials and method A 1 mg/ml solution of LPS of Salmonella Re595 (Sigma; L9764) in carbonate buffer (0.1 M, pH 9.5) is incubated for 24 hours with 5×10^7 DynaBeads™ (M450, Dynal A. S., Oslo, Norway) activated with Tosyl. The beads loaded with LPS are washed 3x and stored in HBSS+0.1% Na-azide (5×10^7 b/ml). A 10% dilution (1 to 10 dilution) of serum of healthy volunteers is mixed with 5×10^6 LPS-Beads for 30 minutes at 22° C. The serum has optionally been incubated before hand with different concentrations of free LPS. The beads are washed 3x with HBSS (Gibco BRL, Gaithersburg, Md., US) and subsequently resuspended in 25 μl SDS-PAGE sample buffer (with 2% SDS and 2.5% DTT). After boiling for 3 minutes at 100° C. the sample is analyzed on a 12.5% SDS-PAGE (Mini-ProteanII; Bio-Rad). The proteins present are stained with Coomassie Blue. A sample with Marker proteins of known sizes (Bio-Rad) serves as reference. For identification the proteins are transferred after SDS-PAGE to nitrocellulose paper by means of a Mini Trans-Blotter™. The proteins are stained with Coomassie Blue, and the protein around 30 kDa is […] and dissolved in buffer. The sequence of this sample is determined. SAP is isolated from normal human serum by making use of the Ca-dependent binding to Sepharose. […]"}},
  "note": "Entries after “also recorded” stand apart in the source; their conditions may differ.",
  "data": [
    {"substance": "SAP fragment, amino acids 27-34: Glu Lys Pro Leu Gln Asn Phe Thr, SEQ ID NO 8 (EKPLQNFT; Fragment of the Serum Amyloid P component, peptide 27-34) [PEP 27-34]", "values": [
      {"measurement": "IC50", "setting": "[1]", "result": "> 106", "unit": "µM"}
    ]},
    {"substance": "SAP fragment, amino acids 33-38: Phe Thr Leu Cys Phe Arg, SEQ ID NO 2 (FTLCFR; Fragment of the Serum Amyloid P component, peptides 33-38) [PEP 33-38]", "values": [
      {"measurement": "inhibition of binding of LPS to monocytes (in words)", "setting": "[1]", "result": "acceptable activity"}
    ]},
    {"substance": "SAP fragment, amino acids 32-39: Asn Phe Thr Leu Cys Phe Arg Ala, SEQ ID NO 3 (NFTLCFRA; Fragment of the Serum Amyloid P component, peptides 32-39) [PEP 32-39]", "values": [
      {"measurement": "IC50", "setting": "[1]", "result": 2, "unit": "µM"},
      {"measurement": "inhibition of binding of LPS to monocytes (in words)", "setting": "[1]", "result": "acceptable activity"}
    ]},
    {"substance": "SAP fragment, amino acids 30-37: Leu Gln Asn Phe Thr Leu Cys Phe, SEQ ID NO 4 (LQNFTLCF; Fragment of the Serum Amyloid P component, peptide 30-37) [PEP 30-37]", "values": [
      {"measurement": "IC50", "setting": "[1]", "result": 4.5, "unit": "µM"},
      {"measurement": "inhibition of binding of LPS to monocytes (in words)", "setting": "[1]", "result": "acceptable activity"}
    ]},
    {"substance": "SAP fragment, amino acids 29-36: Pro Leu Gln Asn Phe Thr Leu Cys, SEQ ID NO 5 (PLQNFTLC; Fragment of the Serum Amyloid P component, peptide 29-36) [PEP 29-36]", "values": [
      {"measurement": "IC50", "setting": "[1]", "result": 6.5, "unit": "µM"},
      {"measurement": "inhibition of binding of LPS to monocytes (in words)", "setting": "[1]", "result": "acceptable activity"}
    ]},
    {"substance": "SAP fragment, amino acids 28-35: Lys Pro Leu Gln Asn Phe Thr Leu, SEQ ID NO 7 (KPLQNFTL; Fragment of the Serum Amyloid P component, peptide 28-35) [PEP 28-35]", "values": [
      {"measurement": "IC50", "setting": "[1]", "result": "> 100", "unit": "µM"}
    ]},
    {"substance": "SAP fragment, amino acids 27-39: Glu Lys Pro Leu Gln Asn Phe Thr Leu Cys Phe Arg Ala, SEQ ID NO 1 (EKPLQNFTLCFRA; Fragment of the Serum Amyloid P component, peptides 27-39; listed as Homo sapiens) [PEP 27-39]", "values": [
      {"measurement": "IC50", "setting": "[1]", "result": 0.1, "unit": "µM"},
      {"measurement": "inhibition of binding of LPS to monocytes (in words)", "setting": "[1]", "result": "very good activity"}
    ]},
    {"substance": "Serum Amyloid P component [SAP]", "values": [
      {"measurement": "activation (priming) of neutrophils by LPS", "setting": "[2]", "result": "greatly reduced"},
      {"measurement": "binding to LPS-Beads / free LPS", "setting": "LPS of Salmonella Re595", "result": "capable of binding with free LPS; also recorded: binds to the LPS-Beads"},
      {"measurement": "IC50", "setting": "[1]", "result": 0.05, "unit": "µM"},
      {"measurement": "inhibition of binding of LPS to monocytes (in words)", "setting": "[1]", "result": "concentration-dependent inhibition"}
    ]}
  ]
}
